Patent publication US20250144562A1, “ELECTROCHEMICAL CO2 CAPTURE WITH AIR STABLE REDOX SPECIES” (President and Fellows of Harvard College, priority 2022, published 2025)

Tests used:
[1] = Stability in air of reduced BTMAPAQ isomers (with and without captured CO2) tracked by 1H NMR
[2] = Cyclic voltammetry of the water-soluble redox molecules; conditions: for redox peak separation: 0.1 M in 1 M TBABr
Description: Cyclic voltammetry was used to examine the electrochemical behaviors of the water-soluble redox molecules in the presence/absence of CO2.

[3] = Stability in air of 2,7-BTMAPFL-OH stirred in air for 12 hours, 1H NMR; assay type: physicochemical; conditions: vigorously stirred in air 12 hours
Description: We vigorously stirred the solution in air for 12 hours, then checked its ^1H NMR spectra before and after being stirred in air.
The 2,7-BTMAPFL molecule undergoes PCET process and forms 2,7-BTMAPFL-OH after the electrochemical reduction; meanwhile, the electrolyte pH swings from near neutral (˜7) to ˜14. Therefore, we also investigated the air stability of 2,7-BTMAPFL-OH at pH 14 by vigorously stirring the pH 14 solution in air for 12 hours.

[4] = pH >6; cited from earlier work
[5] = Reduction potentials stated for choice of chemical reductant; conditions: pH=7
[6] = with captured CO2, D2O, 1 M KCl
[7] = with captured CO2, D2O, 1 M KCl, air exposure
[8] = with captured CO2, D2O, 1 M KCl, air exposure, day-4
[9] = with captured CO2, D2O, 1 M KCl, air exposure, day-6
[10] = without captured CO2, D2O, 1 M KCl
[11] = without captured CO2, D2O, 1 M KCl, air exposure
[12] = without captured CO2, D2O, 1 M KCl, air exposure, day-3

C[N+](C)(C)CCCOc1ccc(OCCC[N+](C)(C)C)c2c1C(=O)c1ccccc1C2=O [1,4-BTMAPAQ]
oxidation by air of the reduced species [1, 6]: relatively slow | day on which peaks of oxidized state start to appear [1, 7]: 2 days | reduced form with captured CO2 converted to the oxidized form ([1]; with captured CO2, D2O, 1 M KCl, air exposure, day-3): 51.5% | reduced form with captured CO2 converted to the oxidized form [1, 8]: 73.0% | reduced form with captured CO2 converted to the oxidized form [1, 9]: 98.0% | oxidation by air of the reduced species [1, 10]: very slow | day on which peaks of oxidized state start to appear [1, 11]: 3 days | reduced form converted to the oxidized form [1, 12]: 11.3% | reduced form converted to the oxidized form ([1]; without captured CO2, D2O, 1 M KCl, air exposure, day-4): 27.6% | reduced form converted to the oxidized form ([1]; without captured CO2, D2O, 1 M KCl, air exposure, day-6): 50%

C[N+](C)(C)CCCOc1cccc2c1C(=O)c1cccc(OCCC[N+](C)(C)C)c1C2=O [1,5-BTMAPAQ]
oxidation by air of the reduced species [1, 6]: very slow | day on which peaks of oxidized state start to appear [1, 7]: 4 days | reduced form with captured CO2 converted to the oxidized form [1, 8]: 15.0% | reduced form with captured CO2 converted to the oxidized form [1, 9]: 22.3% | oxidation by air of the reduced species [1, 10]: very slow | air stability (1H NMR spectra unchanged) [1, 11]: good air stability over the first day | day on which peaks of oxidized state start to appear [1, 11]: 2 days | reduced form converted to the oxidized form [1, 12]: 37.0% | reduced form converted to the oxidized form ([1]; without captured CO2, D2O, 1 M KCl, air exposure, day-5): 47.4% | reduced form converted to the oxidized form ([1]; without captured CO2, D2O, 1 M KCl, loosely capped, air exposure, day-2): 23.6%

C[N+](C)(C)CCCOc1cccc2c1C(=O)c1c(OCCC[N+](C)(C)C)cccc1C2=O [1,8-BTMAPAQ]
redox peak separation ([2]; absence of CO2, scan rate 100 mV/s): 100 mV | redox peak separation ([2]; in the presence of CO2, scan rate 100 mV/s): 200 mV | time the reduced species with captured CO2 can withstand the presence of air ([1]; with captured CO2, 1 M TBABr): 5 days | oxidation by air of the reduced species ([1]; with captured CO2, D2O, 1 M TBABr): extremely slow | day on which peaks of oxidized state appear ([1]; with captured CO2, D2O, 1 M TBABr, air exposure day 1 to day 9): 9 days

C[N+](C)(C)CCCOc1ccc2c(c1)C(O)c1cc(OCCC[N+](C)(C)C)ccc1-2 [2,7-BTMAPFL-OH]
air stability (1H NMR spectra unchanged) ([3]; D2O, 1 M KCl, pH 7): excellent air stability over 12 hours | air stability (1H NMR spectra almost unchanged) ([3]; pH 14): excellent air stability over 12 hours

C[N+](C)(C)CCCOc1ccc2c(c1)C(=O)c1cc(OCCC[N+](C)(C)C)ccc1-2 [2,7-BTMAPFL]
cyclic voltammetry peaks observed ([2]; 0.1 M in 1 M KCl at pH 7, scan rate 100 mV/s): a reduction peak but no oxidation peak | potential of the pair of redox peaks ([2]; 0.1 M in 1 M KOH at pH 14, scan rate 100 mV/s): −0.67 V vs. Ag/AgCl | electrochemical reversibility ([2]; pH 7): poor reversibility | electrochemical reversibility ([2]; pH 14): good reversibility

O=NO [NO2, nitrite]
air-stability [4]: superior air-stability

O=S([O-])S(=O)[O-].[Na+].[Na+] [Na2S2O4, sodium dithionite, reference compound]
reduction potential [5]: −0.66 V vs. SHE

bis-(trimethylammonio)propyl anthraquinone [BTMAPAQ]
reduction potential [5]: −0.41 V vs. SHE
